Patent publication EP0054898A1, “Formamidine derivatives, preparation and use thereof, pharmaceutical compositions containing them and their preparation” (HOECHST AKTIENGESELLSCHAFT, priority 1980, dated 1982)

System: Serum-Lipoproteine
Test: Effect on serum lipoproteins (cholesterol in serum and in ultracentrifuge fractions) in rats after 7 days of oral treatment
Format: in vivo, männlichen Wistar-Ratten
Details: Dosis 1 mg/kg/Tag, oral (gavage), 7 days, pooled serum
Description: Die Wirkung der angeführten Verbindungen auf die Serum- Lipoproteine wurde an männlichen Wistar-Ratten untersucht, die 7 Tage per Schlundsonde mit den angeführten in Polyäthylenglykol 400 suspendierten Verbindungen behandelt wurden. Außerdem wurde eine Kontrollgruppe, die nur das Lösungsmittel Polyäthylenglykol 400 erhielt, mitgeführt, sowie eine Ratten-Gruppe, die zum Vergleich das Standardhypolipidämikum Clofibrat, ebenfalls in Polyäthylenglykol 400 gelöst, erhielt. Pro Gruppe wurden in der Regel 10 Tiere eingesetzt, denen am Ende der Behandlung das Blut nach leichter Äthernakose aus dem Orbitalplexus entnommen wurde. Das daraus gewonnene Serum wurde gepoolt. Die Serum- Lipoproteine wurden in der Ultrazentrifuge in folgende Dichteklassen getrennt: • VLDL 1,006; LDL 1,006 bis 1,04; HDL 1,04 bis 1,21.
Aus den in der Ultrazentrifuge isolierten LipoproteinFraktionen wurde das darin enthaltene Choletserin vollenzymatisch nach der CHOD-PAP-Methode mittels der Testkombination von Boehringer Mannheim bestimmt und die Werte in ug/ml Serum umgerechnet. In der angeführten Tabelle (S.8) ist die Veränderung des Lipoprotein-Cholesterins in der behandelten Gruppe gegenüber einer unter gleichen Bedingungen mitgeführten Kontrollgruppe angegeben.
% Veränderung der Lipoproteine in Ratten-Serum nach siebentägiger oraler Behandlung mit den Verbindungen

SMILES	% Veränderung des Cholesterins gegenüber Kontrolle in der Serum-Lipoprotein-Fraktion VLDL
CN(C#N)C=Nc1ccc(Oc2ccc(Cl)cc2)c(Cl)c1 [Beispiel 50]	+3%

Same assay, conditions: Dosis 3 mg/kg/Tag, oral (gavage), 7 days, pooled serum

SMILES	% Veränderung des Cholesterins gegenüber Kontrolle im Serum	% Veränderung des Cholesterins gegenüber Kontrolle in der Serum-Lipoprotein-Fraktion HDL	% Veränderung des Cholesterins gegenüber Kontrolle in der Serum-Lipoprotein-Fraktion LDL [%]	% Veränderung des Cholesterins gegenüber Kontrolle in der Serum-Lipoprotein-Fraktion VLDL [%]
CN(C#N)C=Nc1ccc(Oc2ccc(Cl)cc2Cl)cc1 [Beispiel 49]	+2%	+2%	-48	
CN(C#N)C=Nc1ccc(Oc2ccccc2)cc1 [Beispiel 48]	-8%	-2%	-56	
CCCCN(C=Nc1ccc(Sc2ccccc2)cc1)S(=O)(=O)c1ccc(C)cc1 [Beispiel 27]	-18%	-2%	-50	-13
Cc1ccc(S(=O)(=O)N(C)C=Nc2ccc(Cl)cc2C(F)(F)F)cc1 [Beispiel 39]	-3%	-7%	-26	-26
Cc1ccc(S(=O)(=O)N(C=Nc2ccc(Sc3ccccc3)cc2)C(C)C)cc1 [Beispiel 28]	-5%	+2%	-25	-5

Same assay, conditions: Dosis 10 mg/kg/Tag, oral (gavage), 7 days, pooled serum

SMILES	% Veränderung des Cholesterins gegenüber Kontrolle im Serum	% Veränderung des Cholesterins gegenüber Kontrolle in der Serum-Lipoprotein-Fraktion HDL	% Veränderung des Cholesterins gegenüber Kontrolle in der Serum-Lipoprotein-Fraktion LDL [%]	% Veränderung des Cholesterins gegenüber Kontrolle in der Serum-Lipoprotein-Fraktion VLDL [%]
CCN(C=Nc1ccc(Sc2ccccc2)cc1)S(=O)(=O)c1ccc(C)cc1 [Beispiel 30]	-3%	-1%	-27	
C#CCN(C=Nc1ccc(Oc2ccccc2)cc1)S(=O)(=O)c1ccc(C)cc1 [Beispiel 7]	-1%	+5%	-22	-51
Cc1ccc(S(=O)(=O)N(C)C=Nc2ccc(Oc3ccc(Cl)cc3Cl)cc2)cc1 [Beispiel 13]	-6%	+1%	-39	-100
Cc1ccc(S(=O)(=O)N(C)C=Nc2ccc(Cl)cc2C)cc1 [Beispiel 38]	-8%	+2%	-36	-30
CCCN(C=Nc1ccc(Oc2ccccc2)cc1)S(=O)(=O)c1ccc(C)cc1 [Beispiel 3]	-5%	+8%	-22	-32
Cc1ccc(S(=O)(=O)N(C)C=Nc2ccccc2C)cc1 [Beispiel 37]	-8%	+3%	-51	
Cc1ccc(S(=O)(=O)N(C)C=Nc2ccc(Oc3ccccc3)cc2)cc1 [Beispiel 12]	-6%	-1%	-42	-70
Cc1ccc(S(=O)(=O)N(C=Nc2ccc(Oc3ccccc3)cc2)Cc2ccccc2)cc1 [Beispiel 2]	-4%	+3%	-22	-50
Cc1ccc(S(=O)(=O)N(C)C=Nc2ccc(Sc3ccccc3)cc2)cc1 [Beispiel 25]	-5%	+5%	-45	-70
Cc1ccc(S(=O)(=O)N(C)C=Nc2c(C)cc(C)cc2C)cc1 [Beispiel 34]	+10%	+14%	-36	
Cc1ccc(S(=O)(=O)N(C)C=Nc2cc(C(F)(F)F)cc(C(F)(F)F)c2)cc1 [Beispiel 36]	-2%			

Same assay, conditions: Dosis 100 mg/kg/Tag, oral (gavage), 7 days, pooled serum

SMILES	% Veränderung des Cholesterins gegenüber Kontrolle im Serum [%]	% Veränderung des Cholesterins gegenüber Kontrolle in der Serum-Lipoprotein-Fraktion HDL [%]	% Veränderung des Cholesterins gegenüber Kontrolle in der Serum-Lipoprotein-Fraktion LDL [%]	% Veränderung des Cholesterins gegenüber Kontrolle in der Serum-Lipoprotein-Fraktion VLDL [%]
CCOC(=O)C(C)(C)Oc1ccc(Cl)cc1 [Clofibrat, reference compound]	-24	-33	-25	-30

Same assay, conditions: summary in words of the table, 7 days oral

SMILES	Wirkung auf die Lipoproteinfraktionen (VLDL, LDL, HDL)
CCOC(=O)C(C)(C)Oc1ccc(Cl)cc1 [Clofibrat, reference compound]	etwa gleichstarke Senkung der LDL-Fraktion und der HDL-Fraktion

System: not listed separately
Test: Relative liver weight
Format: in vivo
Details: in wirksamer Dosis; result in words
Description: Es ist allgemein anerkannt, daß für die Entstehung artericsklerotischer Gefäßveränderungen, insbesondere der coronaren Herzkrankheit, Hyperlipoproteinämien einen wesentlichen Risikofaktor darstellen. Für die Prophylaxe und die Regression von atherosklerotischen Veränderungen kommt daher der Senkung erhöhter Serum-Lipoproteine eine außerordentliche Bedeutung zu. Hierbei kommt es aber auf ganz bestimmte Klassen von Serum-Lipoproteinen an, da die low density (LDL) und very low density-Lipoproteine (VLDL) einen atherogenen Risikofaktor darstellen, während die high density-Lipoproteine (HDL) eine Schutzfunktion gegenüber der coronaren Herzkrankheit darstellen. Hypolipidämika sollen demnach VLDL-Cholesterin und LDL-Cholesterin im Serum erniedrigen, dabei aber die HDL-Cholesterin-Konzentration nach Möglichkeit unbeeinflußt lassen oder sogar erhöhen. Die erfindungsgemäßen Verbindungen haben wertvolle therapeutische Eigenschaften. So erniedrigen sie vor allem die Konzentration von LDL und VLDL, während die HDL-Fraktion entweder in wesentlich geringerem Maße erniedrigt, oder sogar erhöht wird..Sie können daher zur Prophylaxe und Regression von atherosklerotischen Veränderungen herangezogen werden, indem sie einen kausalen Risikofaktor ausschalten. Hierzu zählen nicht nur die primären Hyperlipoproteinämien, sondern auch gewisse.sekundäre Hyperlipidämien wie sie z.B. beim Diabtes vorkommen.

SMILES	relatives Lebergewicht
CCOC(=O)C(C)(C)Oc1ccc(Cl)cc1 [Clofibrat, reference compound]	starken Erhöhung des relativen Lebergewichts
